Data as given in patent publication EP4653443A1, “STEREOISOMER AND DEUTERATED DERIVATIVE OF PYRAZOLOQUINAZOLINE COMPOUND AND USE” (Phil Rivers Technology Co., Ltd, priority 2023, dated 2024).
Read-outs that look alike come from different tables or passages of the source.

How the values were obtained:
[1] = Metabolic stability in liver microsomes (mouse); type: in vitro ADME; details: for Residual Amount (%) 15 min / Residual Amount (%) 30 min / Residual Amount (%) 45 min / Residual Amount (%) 60 min: Mouse, first line of pair
Procedure: (§1) For negative samples, add 80µL of PBS (100mM, pH = 7.4) solution. Vortex at 800 rpm for 10 seconds, then pre-incubate in a 37°C water bath for 10 minutes. • 4) After pre-incubation, add 2 µL of control drug or test compound to each well to initiate the reaction. The reaction is carried out in a 37°C water bath at 60 rpm. • 5) At 0.5, 15, 30, 45, and 60 minutes, take 50 µL of the reaction system from each well and add it to 200 µL of cold methanol solution containing the internal standard to terminate the reaction. • 6) Mix thoroughly and centrifuge at 4000 rpm at 4°C for 30 minutes. • 7) Take 100µL of supernatant and mix with 100µL ultrapure water for liquid-mass analysis. *Internal standards: 50nM alprazolam, 50nM labetalol and 100nM ketoprofen
(§2) The internal standard method is adopted, and the ratio of the sample peak area to the internal standard peak area is used to calculate the residual percentage (taking the ratio of the sample peak area to the internal standard peak area at 0.5 minutes as 100%).

[2] = Pharmacokinetic study in mice (IV and PO, plasma LC-MS/MS)
Procedure: The objective of this study is to investigate the pharmacokinetic properties of the disclosed compounds after tail vein intravenous injection (IV) and oral administration (PO) in female CD1 mice. Plasma was sampleed at 0, 0.083, 0.25, 0.5, 1, 2, 4, 7 and 24 hours post-dosing, and the drug concentrations in plasma at different time points were detected by LC-MS/MS, and the relevant pharmacokinetic parameters were calculated using WinNonlin software.
Experimental female CD1 mice were purchased from SPF Laboratory Animal Technology Co., Ltd., aged 6-8 weeks with body weights of 20-30 g. The female CD1 mice were housed in a controlled environment (set temperature at 20-25°C and relative humidity at 40-70%). A 12-hour light/12-hour dark cycle was maintained unless interrupted by study-related events.
Compound solutions are prepared in an ultra-clean workbench and prepared immediately before use, and mixed thoroughly prior to use to ensure formulation homogeneity.
Vehicle composition: 10% DMSO+90% (20%SBE-β-CD) Table 4. Doses Used in IV Administration
Vehicle composition: 10% DMSO + 90% (20%SBE-β-CD) Table 5. Doses Used in PO Administration
Vehicle composition: 0.5% MC + 1% Tween-20 Table 6. Doses Used in PO Administration
Prior to the experiment, the animals were randomly grouped. The mice were fasted for 12 hours before drug administration, and free feeding was resumed 4 hours after administration.
All blood samples were transferred into plastic microcentrifuge tubes containing anticoagulant (EDTA-K2), and then centrifuged at 4000 g for 5 minutes at 4°C. The supernatant was transferred into a microcentrifuge tube without anticoagulant, and the plasma was stored in a -75±15°C refrigerator until detection.
The blood samples were purified by HPLC and analyzed by mass spectrometry to obtain the plasma concentration-time curve of the disclosed compound.
The pharmacokinetic parameters were estimated by non-compartmental model method (calculated by Phoenix WinNonlin software).

[3] = Permeability and transporter substrate test in Caco-2 cells (ABBA); type: in vitro ADME; details: human, pH 7.4; for Papp A→B at 2 h, 5 µM: Caco-2, A to B, read-out: Average Papp PappA-B; for Papp B→A at 2 h, 5 µM: Caco-2, B to A, read-out: Average Papp PappB-A; for efflux ratio at 2 h, 5 µM: Caco-2, Papp(B-A)/Papp(A-B), read-out: Efflux Rate (ERa)
Procedure: (§3) Apparent permeability coefficient (Papp, cm/s) and efflux ratio were calculated using Microsoft Excel.

Caco-2 cells = assay: as above; type: in vitro ADME; details: Caco-2
Procedure: as §3

[4] = tested on: Pancreatic cancer cell line BxPC-3; assay: BxPC-3 subcutaneous tumor xenograft mouse model (pancreatic cancer); type: in vivo; details: for TGI: test endpoint, TGITV
[5] = Metabolic stability in liver microsomes (human); type: in vitro ADME; details: for Residual Amount (%) 15 min / Residual Amount (%) 30 min / Residual Amount (%) 45 min / Residual Amount (%) 60 min: Human, first line of pair; for half-life at 2 µM / microsomal CLint at 2 µM: pH 7.4
Procedure: as §1, §2

HCT116 cells = type: in vivo; details: for TGI: test endpoint (PG-D22), TGITV
Procedure: • Balb/c nude mice: SPF grade, female, 6-8 weeks old, weighing 16-20 g, purchased from SPF (Beijing) Biotechnology Co., Ltd. • HCT116 cells: purchased from ATCC;
HCT116 cells were cultured in RPMI-1640 medium containing inactivated 10% fetal bovine serum, 100 U/mL penicillin, 100 µg/mL streptomycin and 2 mM glutamine in an incubator at 37°C with 5% CO2. Once the cells reached confluence, they were subcultured into new flasks. The tumor cells in the logarithmic growth phase were used for inoculation of tumors in vivo.
The tumor cells were washed twice with PBS, and the cell concentration was adjusted to 5×10^7/ml. The resuspended tumor cells were inoculated subcutaneously in the right flank of the experimental animals at 100 µL/mouse, i.e. 5×10^6/mouse. When the tumor grew to an average tumor volume of […], the animals were grouped for drug administration according to the tumor volume, with a total of 7 groups, 8 animals in each group. The first day of group drug administration was recorded as PG-D0. Table 25. Administration Schedule
During the administration, the health status of the animals is monitored.
From grouping until the end of the experiment, mouse body weight was measured every 3 days using an electronic balance.
From grouping until the end of the experiment, the long and short diameters of the mouse tumors were measured every 3 days using an electronic vernier caliper, and the volume was calculated using the formula: Volume (TV) = 0.5 × long diameter × (short diameter)^2.
RTV is the relative tumor volume, that is, the ratio of the tumor volume after administration to that before administration.
Graphpad prism 8 statistical software was used to perform statistical analysis of tumor volume and tumor weight among groups using the One-Way ANOVA test (homogeneity of variance), and p < 0.05 was considered statistically significant.

[6] = 90 mg/kg p.o. q.d. 10 consecutive days
[7] = 30 mg/kg p.o. q.d. 10 consecutive days
[8] = 60 mg/kg p.o. q.d. 10 consecutive days
[9] = male, CD-1, pH 7.4, Mouse liver microsomes
[10] = 60 mg/kg p.o. q.d., 8 mice per group

| SMILES | Residual Amount (%) 15 min [1] | Residual Amount (%) 30 min [1] | Residual Amount (%) 45 min [1] | Residual Amount (%) 60 min [1] | F ([2]; PO 10 mg/kg vs IV 10 mg/kg) | Papp A→B at 2 h, 5 µM [3] | Papp B→A at 2 h, 5 µM [3] | efflux ratio at 2 h, 5 µM [3] | Classification Efflux Transporter Substrate (Caco-2 cells) | Residual Amount (%) 15 min [5] | Residual Amount (%) 30 min [5] | Residual Amount (%) 45 min [5] | Residual Amount (%) 60 min [5] | TGI (HCT116 cells; [7]) | TGI (HCT116 cells; [8]) | half-life at 2 µM [1, 9] | microsomal CLint [1, 9] | Mouse Mortality Rate [4, 8] | TGI [4, 8] | half-life at 2 µM ([5]; Human liver microsomes) | further results |
| --- | --- | --- | --- | --- | --- | --- | --- | --- | --- | --- | --- | --- | --- | --- | --- | --- | --- | --- | --- | --- | --- |
| [2H]C1([2H])CN(c2ccc(OC(F)(F)F)c(Nc3ncc4c(n3)-c3c(c(C(N)=O)nn3CCO)CC4)c2)C([2H])([2H])[C@H]2CCCN21 [CPD04] | 61.30% | 39.18% | 34.10% | 26.56% | 42.8% | 4.2 ×10⁻⁶ cm/s | 25.1 ×10⁻⁶ cm/s | 5.98 | Probable (ERa ≧ 2) | 52.72% | 28.62% | 21.10% | 13.41% | 7.6% | 30.5% |  |  |  |  |  | half-life ([1]; Mouse liver microsomes): 0.532 h; microsomal CLint ([1]; Mouse liver microsomes): 43.4 µL/min/mg; Mouse Mortality Rate [4, 6]: 0%; TGI [4, 6]: 53%; half-life ([5]; Human liver microsomes): 0.349 h; microsomal CLint ([5]; Human liver microsomes): 66.2 µL/min/mg |
| [2H]C1([2H])N(C)C([2H])([2H])C([2H])([2H])N(c2ccc(OC(F)(F)F)c(Nc3ncc4c(n3)-c3c(c(C(N)=O)nn3CCO)CC4)c2)C1([2H])[2H] [CPD06] | 81.80% | 68.21% | 64.96% | 57.01% | 43.1% | 5.18 ×10⁻⁶ cm/s | 34.7 ×10⁻⁶ cm/s | 6.71 | Probable (ERa ≧ 2) | 86.05% | 73.64% | 68.37% | 63.15% | 42.4% | 75.6% | 1.27 h | 18.2 µL/min/mg | 0% | 71% | 1.5 h | Mouse Mortality Rate [4, 7]: 0%; TGI [4, 7]: 33%; toxic symptoms during the treatment ([4]; BxPC-3 tumor-bearing mice): No obvious toxic symptoms were observed; microsomal CLint at 2 µM ([5]; Human liver microsomes): 15.4 µL/min/mg |
| CN1CCN(c2ccc(OC(F)(F)F)c(Nc3ncc4c(n3)-c3c(c(C(N)=O)nn3CCO)CC4)c2)CC1 [NMS-P937, onvansertib, reference compound] | 82.56% | 69.31% | 61.60% | 53.17% | 27.1% | 6.09 ×10⁻⁶ cm/s | 34.2 ×10⁻⁶ cm/s | 5.61 | Probable (ERa ≧ 2) | 80.23% | 73.16% | 69.74% | 58.94% | 44.1% | 64.2% | 1.11 h | 20.9 µL/min/mg | 25% | 61% | 1.44 h | F ([2]; PO 5 mg/kg vs IV 2 mg/kg): 20.5%; mice died [4, 10]: 2; microsomal CLint at 2 µM ([5]; Human liver microsomes): 16.1 µL/min/mg; mice died (HCT116 cells; [10]): three |
